Results: US6703413B2 (Rhode Island Hospital, priority 1999, dated 2004)

What was measured:
[1] = tested on: Untransfected glioblastoma cells; experiment: Cytotoxicity in glioblastoma cells; type: cell-based, human; details: 1 μM
From the text: (§1) The neoplastic cell lines used in the survey were standard tumor cell lines, e.g., PA1 human ovarian cell line, SKOV3 human ovarian cell line, HT29 human colon tumor cell line, DU145 human prostate tumor cell line, U251 human glioblastoma cell line, U251-MDR human glioblastoma cell line transfected with DNA encoding MDR, T98G human glioblastoma cell line, SP-1 human leukemia cell line, and Daudi human leukemia cell line.
(§2) Glioblastoma cells were transfected with a gene encoding multiple drug resistance (MDR).

[2] = tested on: MDR-transfected glioblastoma cells; experiment: Cytotoxicity in drug resistant glioblastoma cells
From the text: as §1, §2

human cancer cell lines = experiment: Cytotoxic activity of taurultam in vitro; type: cell-based
Protocol: The cytotoxic activity of taurultam was evaluated in vitro using the same human cancer cell lines as described above. […] The data also indicate that the cytotoxic effect is directly proportionate to the number of methylol molecules liberated per molecule of methylol-containing compound

| Structure (SMILES) | cytotoxicity [1] | cytotoxicity ([2]; 1 μM) | resistance of transfected cells ([2]; MDR-transfected versus untransfected) | apoptotic death (human cancer cell lines; cancer cells versus normal control cells) | cytotoxic activity relative to taurolidine (human cancer cell lines; of the activity observed with taurolidine) |
| --- | --- | --- | --- | --- | --- |
| COc1cccc2c1C(=O)c1c(O)c3c(c(O)c1C2=O)C[C@@](O)(C(=O)CO)C[C@@H]3O[C@H]1C[C@H](N)[C@H](O)[C@H](C)O1 [adriamycin] | killed | resistant | 100-1000 times |  |  |
| O=S1(=O)CCNCN1 [taurultam] |  |  |  | induced apoptotic death of cancer cells but not normal control cells | approximately 75% |
